SMILES strings stand for the structures.

For test [1], the system named is A549. Description: Study of cytotoxicity (CellTiter-Blue, 72 hours). It is filed as cell-based. Particulars: Homo sapiens, A549; 72 hours of incubation; read-out: IC50 for different cell lines: A549. Here is the method: (§1) The biological activity of the compounds of the invention was studied in vitro on 7 human cancer cell lines with different tissue origins (HCT116: colorectal carcinoma; K562: chronic myeloid leukemia; B16-F10: melanoma; U87: glioblastoma; A549: lung cancer and MDA-MB 231 and MDA-MB 435: breast cancer). The cells selected for the study were incubated at 37° C. in the presence of one of the compounds added into the culture medium at different concentrations. The whole of the conducted experiments allowed determination of the toxicity level of the tested compound, its effect on the course of the cell cycle as well as its capacity of inducing cell death by apoptosis.
(§2) The cancer cell lines originate from the American Type Culture Collection (Rockville, Md., USA) and were grown according to the recommendations of the supplier.
(§3) The cells A549, U87, MDA-MB231, MDA-MB435 and B16F10 were grown in a culture medium “Dulbecco minimal essential medium” (DMEM) containing 4.5 g/L of glucose and supplemented with 10% fetal calf serum and 1% glutamine. The K562 and HCT116 were grown in an RPMI 1640 medium containing 10% fetal calf serum and 1% glutamine. All the cell lines were maintained in the culture at 37° C. in a humid atmosphere containing 5% of CO2. Cell viability was evaluated by using the reagent “CellTiter-Blue™” (Promega, Wis., USA) while observing the instructions of the manufacturer. The cells were sown in 96-well culture plates with 5000 cells per well in 50 μL of culture medium. After 24 hours of culture, the compounds of general formula (I) dissolved in DMSO were individually added into each of the wells in an amount of 50 μl per well. All the compounds were tested in triplicate for each defined concentration and each experiment was repeated three times. After 72 hours of incubation, 20 μL of resazurin were added in each well. After 2 hours of incubation, the emitted fluorescence was measured at 590 nm after excitation at 560 nm by means of a fluorescence reader of the Victor type (Perkin-Elmer, USA).
(§4) The concentration of each of the compounds which induces the death of 50% of the cells (IC50) was determined after 72 hours of incubation. Certain compounds according to the invention have an IC50 of the order of one nanomolar concentration, therefore equivalent to CA-4 taken as a reference.

Test [2] deals with HCT116. Description: Study of cytotoxicity (CellTiter-Blue, 72 hours). The format is cell-based. Particulars: Homo sapiens, HCT-116; 72 hours of incubation; read-out: IC50 for different cell lines: HCT116. Here is the method:
as §1, §2, §3, §4

Test [3] concerns K562. As to the kind of experiment: Study of cytotoxicity (CellTiter-Blue, 72 hours). It is filed as cell-based. The settings on record: Homo sapiens, 72 hours of incubation, read-out: IC50 for different cell lines: K562. The method, then:
as §1, §2, §3, §4

The subject of test [4] is MDA-MB 435. Description: Study of cytotoxicity (CellTiter-Blue, 72 hours). It is filed as cell-based. The settings on record: Homo sapiens, MDA-MB-435; 72 hours of incubation; read-out: IC50 for different cell lines: M435. The method, then: as §1, §2, §3, §4
Test [5] deals with B16F10. As to the kind of experiment: Study of cytotoxicity (CellTiter-Blue, 72 hours). It is filed as cell-based, human. The settings on record: Mus musculus, B16-F10; 72 hours of incubation; read-out: IC50 for different cell lines: B16F10. The method, then:
as §1, §2
The cells A549, U87, MDA-MB231, MDA-MB435 and B16F10 were grown in a culture medium “Dulbecco minimal essential medium” (DMEM) containing 4.5 g/L of glucose and supplemented with 10% fetal calf serum and 1% glutamine. […] Cell viability was evaluated by using the reagent “CellTiter-Blue™” (Promega, Wis., USA) while observing the instructions of the manufacturer. […] After 2 hours of incubation, the emitted fluorescence was measured at 590 nm after excitation at 560 nm by means of a fluorescence reader of the Victor type (Perkin-Elmer, USA). […]

The subject of test [6] is HCT116 cells. Description: Study of apoptosis (caspase-3/7 activity). It is filed as cell-based, human. Particulars: HCT116, 24 hours. The method, then: (§5) In order to specify whether the compound (I-1) causes cell death by apoptosis, the intracellular enzymatic activity of caspases 3 and 7 was evaluated in cultures of K562, HCT116 and MDA-MB 231 cells exposed for 24 hours to the action of the compound (I-1).
(§6) Apoptosis is measured by using the kit “Apo-one homogeneous caspase-3/7 assay” (Promega Co., WI, USA) by following the recommendations of the manufacturer. Briefly, the cells are sown in 96-well culture plates with 50,000 cells per well in 100 μL of culture medium. After 24 hours of incubation, the medium is replaced with 100 μL of culture medium containing different concentrations of the compound […] or 0.1% DMSO (negative control). After 24 hours of treatment, 100 μL of reagent containing the substrate of the caspase and the buffer of the reaction are added into each well. After 1 hour of incubation, the fluorescence emitted by the cell is measured at 527 nm with a microplate reader of the Victor type (Perkin-Elmer, USA).

Test [7] has as its system K562 cells. Description: Study of apoptosis (caspase-3/7 activity). It is filed as cell-based, human. The settings on record: K562, 24 hours. The method, then:
as §5, §6

Test [8] concerns MDA-MB 231 cells. As to the kind of experiment: Study of apoptosis (caspase-3/7 activity). It is filed as cell-based, human. Particulars: MDA-MB 231, 24 hours. Here is the method:
as §5, §6

In test [9] the test system is human endothelial cells (EAhy926). Description: Formation of vascular tubes on Matrigel. The format is cell-based. Particulars: EAhy926, treatment of 3 hours, 10 nM. The method, then:
In order to know whether the compound (I-1) perturbs the spatial organization of endothelial cells in structures similar to vascular capillaries, human endothelial cells (EAhy926) were treated immediately after cultivation on Matrigel® or after 24 hours of cultivation, in order to allow them to form vascular tubes.
In order to evaluate the antivascular activity of the compound (I-1), the EAhy926 cells were cultivated in 96-well culture plates covered beforehand with an extract of extracellular matrix (Matrigel™, BD Biosciences, Le Pont-de-Claix, France) in which they spontaneously form capillary tubes.
First of all, we measured the capacity of the compound (I-1) of inhibiting the formation of the capillary network. Matrigel™ is deposited in 96-well culture plates in an amount of 70 μL/well and left to incubate at 37° C. for 45 minutes in order to allow its polymerization. 15,000 cells suspended in 150 μL of culture medium are sown per well in each of the wells containing Matrigel™ in the absence or in the presence of different concentrations of the compound (I-1), with 3 wells per concentration. After 1 hour, 3 hours and 6 hours of incubation at 37° C., the cells are observed and photographed by means of an optical microscope of the TE2000 type (Nikon, France), equipped with a camera. […]

On to `C=C(c1ccc(OC)c(O)c1)c1cc(OC)c(OC)c(OC)c1` [(I-1)], for which the IC50 in [1] was 8 nM; in test [2] it was 2 to 4 nM; in [3] it was 5 nM; in test [4], 4.5 nM; in test [5], 2 nM. In addition, the “Induction of apoptosis (caspases 3 and 7)” value in test [6], in test [7] and in test [8] was “strong induction of apoptosis” in each case. In test [9], the “Number of vascular tubes on Matrigel” value is given as “very significant decrease in the number of vascular tubes”.

The values are drawn from US8273768B2, “Iso CA-4 and analogues thereof as potent cytotoxic agents inhibiting tubuline polymerization” (Centre National de la Recherche Scientifique (CNRS), priority 2007, dated 2012).
